The values below come from ChEMBL document CHEMBL3244333, “2-Acetylpyridine thiosemicarbazones. 2. N4,N4-Disubstituted derivatives as potential antimalarial agents” (J Med Chem, 1979).

In series [1] the test system is Plasmodium berghei. The series is described as follows: Antimalarial activity against Plasmodium berghei KBG 173 infected in mouse assessed as increase of mean survival time at 40 mg/kg. It is filed as functional.
The subject of series [2] is Plasmodium berghei. In words: Antimalarial activity against Plasmodium berghei KBG 173 infected in mouse assessed as cured animal from parasite infection at 80 mg/kg. Details: dose 80 mg/kg. It is filed as functional, organism-based.
Series [3] relates to Mus musculus. The series is described as follows: Toxicity in Plasmodium berghei KBG 173 infected mouse at 160 mg/kg. It is filed as organism-based. More on the design: dose 160 mg/kg. Conditions: in vivo.
Series [4] deals with Plasmodium berghei. The series is described as follows: Antimalarial activity against Plasmodium berghei KBG 173 infected in mouse assessed as cured animal from parasite infection at 160 mg/kg. It is filed as functional, organism-based. Details: dose 160 mg/kg.
The subject of series [5] is Plasmodium berghei. In words: Antimalarial activity against Plasmodium berghei KBG 173 infected in mouse assessed as increase of mean survival time at 320 mg/kg. It is filed as functional.
Series [6] deals with Mus musculus. The series is described as follows: Toxicity in Plasmodium berghei KBG 173 infected mouse at 320 mg/kg. It is filed as organism-based. Details: dose 320 mg/kg. Conditions: in vivo.
Series [7] deals with Plasmodium berghei. The series is described as follows: Antimalarial activity against Plasmodium berghei KBG 173 infected in mouse assessed as cured animal from parasite infection at 320 mg/kg. It is filed as functional, organism-based. More on the design: dose 320 mg/kg.
Series [8] has as its system Plasmodium berghei. The series is described as follows: Antimalarial activity against Plasmodium berghei KBG 173 infected in mouse assessed as increase of mean survival time at 640 mg/kg. It is filed as functional.
Series [9] concerns Mus musculus. In words: Toxicity in Plasmodium berghei KBG 173 infected mouse at 640 mg/kg. It is filed as organism-based. Details: dose 640 mg/kg. Conditions: in vivo.
In series [10] the test system is Plasmodium berghei. In words: Antimalarial activity against Plasmodium berghei KBG 173 infected in mouse assessed as cured animal from parasite infection at 640 mg/kg. It is filed as functional, organism-based. Details: dose 640 mg/kg.
Series [11] deals with Plasmodium berghei. In words: Antimalarial activity against Plasmodium berghei KBG 173 infected in mouse assessed as increase of mean survival time at 80 mg/kg. It is filed as functional.
The test system of series [12] is Plasmodium berghei. In words: Antimalarial activity against Plasmodium berghei KBG 173 infected in mouse assessed as increase of mean survival time at 160 mg/kg. It is filed as functional.
Series [13] relates to Plasmodium berghei. In words: Antimalarial activity against Plasmodium berghei KBG 173 infected in mouse assessed as cured animal from parasite infection at 40 mg/kg. It is filed as functional, organism-based. More on the design: dose 40 mg/kg.
Series [14] concerns Mus musculus. In words: Toxicity in Plasmodium berghei KBG 173 infected mouse at 80 mg/kg. It is filed as organism-based. More on the design: dose 80 mg/kg. Conditions: in vivo.
Series [15] concerns Mus musculus. The series is described as follows: Toxicity in Plasmodium berghei KBG 173 infected mouse at 40 mg/kg. It is filed as organism-based. More on the design: dose 40 mg/kg. To be noted: in vivo.

Active and inactive are the calls of the source. No cut-off for these calls is given here.

For the compound `C/C(=N/NC(=S)N1C(C)CCC1C)c1ccccn1` (stereo not drawn), the Survival came to 4.7 days in the series with Plasmodium berghei [1], 0 days in the series on Plasmodium berghei [5] and 0 days in the series on Plasmodium berghei [8]. Besides, the outcome with Plasmodium berghei [2], with Plasmodium berghei [4], in the series with Plasmodium berghei [7] and in the series on Plasmodium berghei [10] was Active. Also, the Activity entry in the series on Mus musculus [3], with Mus musculus [6] and with Mus musculus [9] was “Toxic” in each case.
`C/C(=N/NC(=S)N1CCN(c2ccccn2)CC1)c1ccccn1`: the Survival stood at 0.7 days in the series on Plasmodium berghei [5] and 0 days with Plasmodium berghei [8]. Also, the Activity result in the series on Mus musculus [6] and in the series with Mus musculus [9] was “Toxic” throughout.
With `C/C(=N/NC(=S)N1CCN(Cc2ccccc2)CC1)c1ccccn1`, the Survival in the series on Plasmodium berghei [1] was found to be 1.6 days; in the series on Plasmodium berghei [11] it was 4.4 days; with Plasmodium berghei [12] it was 5.6 days. Further, the result in the series on Plasmodium berghei [7] and in the series on Plasmodium berghei [10] was Active.
For the compound `C/C(=N/NC(=S)N1CCN(c2cccc(C(F)(F)F)c2)CC1)c1ccccn1`, the values for the Survival in the series with Plasmodium berghei [1] and in the series on Plasmodium berghei [11] were 0.1 days and 2.4 days, respectively. In addition, the outcome in the series with Plasmodium berghei [4], with Plasmodium berghei [7] and in the series on Plasmodium berghei [10] was Active. Moreover, the Activity entry in the series on Mus musculus [6] and in the series on Mus musculus [9] was “Toxic” in each case.
On to `C/C(=N/NC(=S)N1CC2CCC(CC2)C1)c1ccccn1`, for which the result in the series with Plasmodium berghei [13], in the series on Plasmodium berghei [2] and in the series with Plasmodium berghei [4] was Active. The Survival came to 0.2 days in the series with Plasmodium berghei [5] and 0.4 days in the series on Plasmodium berghei [8]. Besides, the Activity entry with Mus musculus [9] was “Toxic”.
On to `C/C(=N/NC(=S)N(C)C1CCCCCCC1)c1ccccn1`, for which the Survival came to 3.2 days in the series with Plasmodium berghei [1], 9.6 days in the series with Plasmodium berghei [11] and 12.1 days with Plasmodium berghei [8]. For the same compound, the result with Plasmodium berghei [2], in the series with Plasmodium berghei [4], in the series with Plasmodium berghei [7] and in the series with Plasmodium berghei [10] was Active. Moreover, in the series with Mus musculus [9], the Activity result is “Toxic”.
For the compound `C/C(=N/NC(=S)N1CCCCCC1)c1ccccn1`, the Survival with Plasmodium berghei [1] came out at 6.2 days. The outcome in the series on Plasmodium berghei [13], with Plasmodium berghei [2], with Plasmodium berghei [4], in the series with Plasmodium berghei [7] and in the series on Plasmodium berghei [10] was Active. Besides, the Activity entry with Mus musculus [3], in the series on Mus musculus [6] and in the series on Mus musculus [9] was “Toxic” throughout.
Turning to `C/C(=N/NC(=S)N1CC(C)CC(C)C1)c1ccccn1` (stereo not drawn), the Survival is 5.6 days in the series on Plasmodium berghei [1], 0 days in the series on Plasmodium berghei [5] and -0.4 days in the series with Plasmodium berghei [8]. Moreover, the outcome with Plasmodium berghei [2], with Plasmodium berghei [4] and in the series with Plasmodium berghei [7] was Active. Also, the Activity result in the series on Mus musculus [6] and in the series on Mus musculus [9] was “Toxic” each time.
For the compound `C/C(=N/NC(=S)N1C(C)CCCC1C)c1ccccn1` (stereo not drawn), the Survival worked out at 0.5 days in the series on Plasmodium berghei [1], 1.6 days in the series on Plasmodium berghei [11] and 6.3 days in the series on Plasmodium berghei [12]. In addition, the result in the series with Plasmodium berghei [7] and in the series on Plasmodium berghei [10] was Active. The Activity entry in the series with Mus musculus [9] is “Toxic”.
On to `CCN(CC)C(=S)N/N=C(/C)c1ccccn1`, for which the values for the Survival in the series with Plasmodium berghei [1] and in the series on Plasmodium berghei [8] were 7.2 days and 0 days, respectively. In addition, the outcome with Plasmodium berghei [13], in the series with Plasmodium berghei [2], with Plasmodium berghei [4] and with Plasmodium berghei [10] was Active. Moreover, the Activity entry in the series on Mus musculus [14], in the series with Mus musculus [3] and in the series on Mus musculus [9] was “Toxic” throughout.
As to `C/C(=N/NC(=S)N(C)CCc1ccccn1)c1ccccn1`, the Survival in the series with Plasmodium berghei [1] worked out at 1.7 days; in the series on Plasmodium berghei [11] it was 3.3 days; in the series on Plasmodium berghei [12], 0 days; in the series with Plasmodium berghei [5] it was 6.7 days; with Plasmodium berghei [8] it was 0 days. The Activity result in the series with Mus musculus [15], in the series with Mus musculus [3], in the series on Mus musculus [6] and in the series on Mus musculus [9] was “Toxic” in each case. Further, the outcome in the series on Plasmodium berghei [4] and in the series with Plasmodium berghei [7] was Active.
Consider `C/C(=N/NC(=S)N(C)Cc1ccccc1)c1ccccn1`, for which the Survival with Plasmodium berghei [1] was found to be 4 days. For the same compound, the Activity result in the series on Mus musculus [14], in the series with Mus musculus [3], with Mus musculus [6] and in the series on Mus musculus [9] was “Toxic” throughout. Further, the outcome with Plasmodium berghei [2], in the series on Plasmodium berghei [4], in the series on Plasmodium berghei [7] and in the series on Plasmodium berghei [10] was Active.
With `C/C(=N/NC(=S)N1CC=C(c2ccccc2)CC1)c1ccccn1`, the Survival in the series with Plasmodium berghei [1] is 0.8 days; in the series on Plasmodium berghei [11], 2 days. Besides, the result in the series with Plasmodium berghei [4], with Plasmodium berghei [7] and with Plasmodium berghei [10] was Active.
Consider `C/C(=N/NC(=S)N1CCN(c2ccccc2)CC1)c1ccccn1`, for which the Survival with Plasmodium berghei [1] is 7 days; with Plasmodium berghei [11], 11.7 days; in the series with Plasmodium berghei [5], -0.1 days; in the series on Plasmodium berghei [8] it was -0.4 days. The result with Plasmodium berghei [13], in the series with Plasmodium berghei [2], with Plasmodium berghei [4] and in the series with Plasmodium berghei [10] was Active. Moreover, the Activity result with Mus musculus [6] and with Mus musculus [9] was “Toxic” throughout.
`C/C(=N/NC(=S)N(C)C1CCCC1)c1ccccn1`: the Survival is 1.5 days with Plasmodium berghei [1], 6 days in the series with Plasmodium berghei [5] and 0 days in the series on Plasmodium berghei [8]. In addition, the result in the series on Plasmodium berghei [2], with Plasmodium berghei [4], in the series on Plasmodium berghei [7] and in the series with Plasmodium berghei [10] was Active. Further, the Activity result with Mus musculus [6] and in the series on Mus musculus [9] was “Toxic” in each case.
As for `C/C(=N/NC(=S)N1CCC(Cc2ccccc2)CC1)c1ccccn1`, the values for the Survival in the series on Plasmodium berghei [1] and with Plasmodium berghei [11] were 0.4 days and 2.8 days, respectively. Further, the outcome in the series with Plasmodium berghei [4], with Plasmodium berghei [7] and in the series with Plasmodium berghei [10] was Active.
Take `CCCCN(C)C(=S)N/N=C(/C)c1ccccn1`: the Survival in the series on Plasmodium berghei [1] turned out to be 5.9 days; in the series with Plasmodium berghei [11], 8.1 days; in the series on Plasmodium berghei [12], 6.9 days; in the series with Plasmodium berghei [5], 0 days; in the series on Plasmodium berghei [8], 0 days. Also, the result with Plasmodium berghei [2], with Plasmodium berghei [4], with Plasmodium berghei [7] and with Plasmodium berghei [10] was Active. In addition, the Activity entry in the series on Mus musculus [3], in the series with Mus musculus [6] and in the series on Mus musculus [9] was “Toxic” each time.
